Source: patent US12195588B2, “Polyether derivatives, uses, and methods of making the same” (P2 Science, Inc., priority 2017, dated 2025)
Read-outs that look alike come from different tables or passages of the source.

System: female Yellow Fever mosquitos (Aedes aegypti)
Assay type: in vivo
Experimental: Mosquitos are exposed to the treatments applied to 3-cm diameter collagen membranes placed over warmed, blood-filled wells in a multi-well plate. The wells are pre-warmed to 96-100° F., and then citrated whole blood with ATP is poured into each well to completely fill. The membrane is applied and secured using vacuum grease. To each membrane 25 microliters of the test solution is applied, and the solution is allowed to dry. The plate is then placed into a plastic box enclosure having 250 adult female mosquitos. The number of instances of a mosquito probing the membrane is recorded during a 20-minute period. The entire procedure is repeated until five replicates are complete. Treatment positions in the plates are rotated between each replicate to eliminate any positional bias. Fresh blood and mosquitoes are used in each replicate. Percent repellency is calculated by comparison to a negative control membrane treated only with water.
This is compared to a solution of DEET in IPA at 20% by weight as a control. The procedure is as described for Example 8.

[1] = Example 8, 25 microliters on membrane, 20-minute period, five replicates, DEET as 20% isopropanol solution
[2] = Example 8, by comparison to water-treated membrane, DEET as 20% isopropanol solution
[3] = Example 10, 20% by weight in IPA

Compound	Mosquito Probes [1]	% Repellency [2]	% Repellency [3]	Mosquito Probes [3]
CCN(CC)C(=O)c1cccc(C)c1 [DEET, di-ethyl-meta-toluamide]	0	100%	100%	0
citronellol dimer acetate [Sample B]	0.6	98.8%	–	–
Citronellol dimer [Sample A]	0.4	99.1%	–	–
